Test results reported in US8871267B2, “Protein matrix materials, devices and methods of making and using thereof” (Gel-Del Technologies, Inc., priority 1998, dated 2014).

Tests used:
hepatocytes = test: Biological activity of released hEGF in in-vitro cell culture; assay type: cell-based; details: subsequent studies using hepatocytes
xanthine oxidase = molecular target: T1, xanthine oxidase (Bos taurus, UniProt P80457); test: Enzyme activity of xanthine oxidase in the device piece (Sigma Enzymatic Assay of Superoxide Dismutase protocol); assay type: biochemical; details: 0.01 unit solution
T1 construct: purchased Sigma Chemical Company, St. Louis Mo
Procedure: A single cylinder piece, prepared as described above in Example 1, was added to a reaction chamber in a spectrophotometer containing xanthine, cytochrome C and other reactants according to previously described superoxide dismutase protocol (Sigma Quality Control Test Procedure EC 1.15.1.1 “Enzymatic Assay of Superoxide Dismutase”) enzyme activity of the enzyme xanthine oxidase in the piece was calculated at 0.0005 delta absorbance min (absorbance measured at 550 mm where no enzyme activity produces 0.00000 change in absorbance). In comparison to a 0.01 unit solution of xanthine oxidase, which produced 0.0250 delta absorbance/min, the activity of the xanthine oxidase in the piece equaled 1% of the control solution in a time period of only 3 minutes.

T1 sequence (P80457 2-1332 limits assumed): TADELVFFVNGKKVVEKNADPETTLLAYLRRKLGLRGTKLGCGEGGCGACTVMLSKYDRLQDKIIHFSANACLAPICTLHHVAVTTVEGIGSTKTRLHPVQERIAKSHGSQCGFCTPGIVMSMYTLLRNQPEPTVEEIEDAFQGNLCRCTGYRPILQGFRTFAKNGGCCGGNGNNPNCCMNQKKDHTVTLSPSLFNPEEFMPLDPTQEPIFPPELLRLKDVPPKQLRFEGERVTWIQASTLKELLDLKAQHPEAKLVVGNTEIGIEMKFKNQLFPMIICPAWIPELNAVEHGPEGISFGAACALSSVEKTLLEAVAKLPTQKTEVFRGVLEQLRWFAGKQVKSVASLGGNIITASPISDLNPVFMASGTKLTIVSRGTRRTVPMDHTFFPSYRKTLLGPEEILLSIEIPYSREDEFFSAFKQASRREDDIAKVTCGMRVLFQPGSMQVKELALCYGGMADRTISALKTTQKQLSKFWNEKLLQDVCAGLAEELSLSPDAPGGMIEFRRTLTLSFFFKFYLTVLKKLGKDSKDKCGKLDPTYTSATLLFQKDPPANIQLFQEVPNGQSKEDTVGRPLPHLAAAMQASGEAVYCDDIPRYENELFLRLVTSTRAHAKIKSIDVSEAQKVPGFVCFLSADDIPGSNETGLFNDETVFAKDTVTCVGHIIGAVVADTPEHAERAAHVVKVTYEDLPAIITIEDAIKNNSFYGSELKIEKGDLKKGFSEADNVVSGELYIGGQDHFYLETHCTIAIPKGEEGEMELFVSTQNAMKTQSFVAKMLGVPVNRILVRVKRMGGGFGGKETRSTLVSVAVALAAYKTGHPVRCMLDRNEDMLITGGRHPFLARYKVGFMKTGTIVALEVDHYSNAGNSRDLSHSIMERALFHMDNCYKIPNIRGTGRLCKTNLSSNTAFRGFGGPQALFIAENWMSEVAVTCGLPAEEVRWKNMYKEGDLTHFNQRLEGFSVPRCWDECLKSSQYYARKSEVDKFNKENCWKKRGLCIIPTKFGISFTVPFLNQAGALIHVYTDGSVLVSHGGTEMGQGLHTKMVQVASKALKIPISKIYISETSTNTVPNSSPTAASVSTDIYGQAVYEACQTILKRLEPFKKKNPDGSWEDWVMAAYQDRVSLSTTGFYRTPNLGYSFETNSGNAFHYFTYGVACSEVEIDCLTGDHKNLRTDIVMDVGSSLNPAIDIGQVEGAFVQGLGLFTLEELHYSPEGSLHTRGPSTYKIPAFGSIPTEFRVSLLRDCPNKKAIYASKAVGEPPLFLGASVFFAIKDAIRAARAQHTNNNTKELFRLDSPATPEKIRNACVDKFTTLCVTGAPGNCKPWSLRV

| Substance | biological activity of released hEGF (hepatocytes) | rate produced by xanthine oxidase solution (xanthine oxidase) [delta absorbance/min] |
| --- | --- | --- |
| hEGF: recombinant human epidermal growth factor (R&D System) (NSDSECPLSHDGYCLHDGVCMYIEALDKYACNCVVGYIGERCQYRDLKWWELR; not fully specified; Epidermal growth factor; UniProt P01133 971-1023, looked up) | has biological activity |  |
| xanthine oxidase |  | 0.0250 |
